From the NIST ThermoML archive (doi:10.1021/je400790d)

Test: mn = molality of the nth substance listed, in mol/kg
Conditions: 100 kPa, Liquid, Vibrating tube method

CCCCCCCC[N+]1(C)CCOCC1.O=S(=O)([N-]S(=O)(=O)C(F)(F)F)C(F)(F)F + CC#N
mass density [kg/m3]
Conditions	m1 = 0.00838	m1 = 0.01564	m1 = 0.02472	m1 = 0.03714	m1 = 0.05106	m1 = 0.06653	m1 = 0.08502	m1 = 0.1052	m1 = 0.1294	m1 = 0.1609
298.15 K	777.974	779.195	780.71	782.766	785.044	787.549	790.507	793.696	797.448	802.25
303.15 K	772.547	773.77	775.289	777.348	779.63	782.14	785.101	788.29	792.039	796.85
308.15 K	767.094	768.318	769.839	771.899	774.185	776.698	779.664	782.856	786.61	791.423
313.15 K	761.606	762.833	764.357	766.421	768.71	771.222	774.189	777.385	781.149	785.97
318.15 K	756.08	757.311	758.838	760.906	763.198	765.716	768.695	771.901	775.667	780.493

CCCC[N+]1(C)CCOCC1.O=S(=O)([N-]S(=O)(=O)C(F)(F)F)C(F)(F)F + CC#N
mass density [kg/m3]
Conditions	m1 = 0.00879	m1 = 0.01653	m1 = 0.02761	m1 = 0.03802	m1 = 0.05226	m1 = 0.06737	m1 = 0.08642	m1 = 0.1101	m1 = 0.13	m1 = 0.1623
298.15 K	778.005	779.272	781.074	782.759	785.036	787.436	790.427	794.115	797.144	802.019
303.15 K	772.575	773.845	775.647	777.331	779.607	781.999	784.994	788.679	791.717	796.577
308.15 K	767.12	768.39	770.192	771.873	774.153	776.549	779.543	783.226	786.253	791.135
313.15 K	761.631	762.901	764.703	766.385	768.667	771.064	774.057	777.74	780.771	785.644
318.15 K	756.103	757.375	759.178	760.862	763.147	765.551	768.552	772.235	775.257	780.136

CC[N+]1(C)CCOCC1.O=S(=O)([N-]S(=O)(=O)C(F)(F)F)C(F)(F)F + CC#N
mass density [kg/m3]
Conditions	m1 = 0.009434	m1 = 0.01654	m1 = 0.02652	m1 = 0.03788	m1 = 0.05256	m1 = 0.06858	m1 = 0.08695	m1 = 0.1078	m1 = 0.1316	m1 = 0.1634
298.15 K	778.145	779.333	780.985	782.85	785.24	787.81	790.74	794.037	797.714	802.54
303.15 K	772.716	773.905	775.56	777.429	779.815	782.385	785.318	788.611	792.286	797.108
308.15 K	767.263	768.452	770.11	771.974	774.365	776.944	779.877	783.146	786.836	791.661
313.15 K	761.774	762.964	764.619	766.483	768.876	771.442	774.373	777.657	781.334	786.155
318.15 K	756.247	757.44	759.113	760.976	763.372	765.945	768.855	772.158	775.832	780.648
